The results in this text go back to ChEMBL document CHEMBL1150080, “Asimilobin and cis- and trans-murisolinones, novel bioactive Annonaceous acetogenins from the seeds of Asimina triloba” (J Nat Prod, 1995).

Values after ≈ are worked out from the molar mass of the structure shown.

One data set relates to MCF7. In words: Cytotoxicity against human MCF7 cells after 7 days by MTT assay. It counts as functional. To be noted: MCF7, 168 h, read-out: ED50 (the source's name). On the technique in general: Tetrazolium assays rely on reduction of a dye to a coloured formazan, in cell work by metabolically active cells.
The subject of a further data set is HT-29. In words: Cytotoxicity against human HT-29 cells after 7 days by MTT assay. The following applies: HT-29, 168 h, read-out: ED50 (the source's name). Type of data set: functional.
A further data set relates to PC-3. Description: Cytotoxicity against human PC3 cells after 7 days by MTT assay. Type of data set: functional. To be noted: PC-3, 168 h, read-out: ED50 (the source's name).
Another data set relates to MIA PaCa-2. In words: Cytotoxicity against human MIAPaCa2 cells after 7 days by MTT assay. It counts as functional. To be noted: MIA PaCa-2, 168 h, read-out: ED50 (the source's name).
The next data set relates to A549. In words: Cytotoxicity against human A549 cells after 7 days by MTT assay. Type of data set: functional. The following applies: A549, 168 h, read-out: ED50 (the source's name).
Another data set concerns A498. In words: Cytotoxicity against human A498 cells after 7 days by MTT assay. Type of data set: functional. To be noted: A498, 168 h, read-out: ED50 (the source's name).
Data set [1] in a line: Toxicity to brine shrimp larvae. The following applies: artemia, in vivo. Type of data set: organism-based.

As for `COc1cccc2c1C(=O)c1c(O)c3c(c(O)c1C2=O)C[C@@](O)(C(=O)CO)C[C@@H]3O[C@H]1C[C@H](N)[C@H](O)[C@H](C)O1` [DOXORUBICIN], the EC50 worked out at 0.0103 µg/mL (≈ 0.019 µM) in the data set on MCF7; 0.0262 µg/mL (≈ 0.0482 µM) with HT-29; 0.0196 µg/mL (≈ 0.0361 µM) in the data set with PC-3; 0.00132 µg/mL (≈ 0.00243 µM) with MIA PaCa-2; 0.00101 µg/mL (≈ 0.00186 µM) in the data set with A549.
For `CCCCCCCCCCCCCC[C@H](O)[C@@H]1CC[C@@H]([C@@H]2CC[C@@H](CCCCC[C@@H](O)CC3=C[C@H](C)OC3=O)O2)O1` [ASIMILOBIN], the EC50 was determined as 2.14 µg/mL (≈ 3.7 µM) with MCF7; 0.063 µg/mL (≈ 0.109 µM) in the data set with HT-29; 1.47 µg/mL (≈ 2.54 µM) with PC-3; 0.0226 µg/mL (≈ 0.039 µM) in the data set on A498; 0.104 µg/mL (≈ 0.18 µM) in the data set with MIA PaCa-2; 0.0301 µg/mL (≈ 0.052 µM) in the data set with A549. Further, the LC50 in data set [1] came to 1.06 µg/mL (≈ 1.83 µM).
As for `CCCCCCCCCCC[C@@H](O)[C@H]1CC[C@H]([C@H](O)CCCCCCCCCC[C@H]2C[C@H](CC(C)=O)C(=O)O2)O1`, the EC50 in the data set on MCF7 came out at 0.0296 µg/mL (≈ 0.0522 µM); in the data set with HT-29 it was 1.16 µg/mL (≈ 2.05 µM); in the data set on PC-3 it was 0.214 µg/mL (≈ 0.378 µM); in the data set with A498, 1.23 µg/mL (≈ 2.17 µM); in the data set with MIA PaCa-2, 0.0059 µg/mL (≈ 0.0104 µM); in the data set on A549 it was 0.0276 µg/mL (≈ 0.0487 µM). Also, the LC50 in data set [1] stood at 18.2 µg/mL (≈ 32.1 µM).
As for `CCCCCCCCCCC[C@@H](O)[C@H]1CC[C@H]([C@H](O)CCCCCCCCCC[C@@H]2C[C@H](CC(C)=O)C(=O)O2)O1`, the EC50 amounted to 0.0793 µg/mL (≈ 0.14 µM) with MCF7; 0.754 µg/mL (≈ 1.33 µM) in the data set on HT-29; 1.48 µg/mL (≈ 2.61 µM) in the data set with PC-3; 3.44 µg/mL (≈ 6.07 µM) in the data set with A498; 0.107 µg/mL (≈ 0.189 µM) with MIA PaCa-2; 0.148 µg/mL (≈ 0.261 µM) in the data set with A549. In addition, in data set [1], the LC50 amounted to 12.3 µg/mL (≈ 21.7 µM).

What is called LC50 is the concentration that kills 50% of the test population. Higher therefore signals lower toxicity.
